Patent publication US11638709B2, “Rucaparib, Talazoparib, Veliparib, Olaparib and AZD 2461 for treating impaired skin wound healing” (AKRIBES BIOMEDICAL GMBH, priority 2017, dated 2023)

Experiments:
[1] = system: macrophages in co-culture with fibroblasts; test: Fibroblast-macrophage coculture with wound exudate (FACS, ELISA); format: cell-based, human; conditions: wound exudate #78; for percentage of live cells in the FACS CD45-gate (macrophages): FIG. 17 A; for macrophage M2 marker CD206: FIG. 17 B; for proinflammatory cytokine IL-1α induced by wound exudate: FIG. 17 C
Protocol: CD14^+ monocytes, isolated from PBMC of healthy donors by magnetic bead separation were incubated either alone or in the presence of primary human dermal fibroblasts (CellNTec) or fibroblast-derived matrices (FDM). FDM had been generated from primary human dermal fibroblasts by a 3-week incubation with the growth supplements vitamin C or insulin and EGF (vitamin C: 2-phospho-L-ascorbic acid trisodium salt, 100 μg/ml; human EGF, 5 ng/ml; human insulin, 5 μg/ml). Alternatively, fibroblast monolayer cultures can be used as well. After 4 days to a week to allow for macrophage differentiation in the presence or absence of M-CSF (25 ng/ml), the cultures were stimulated overnight with graded concentrations of test compounds in the absence or presence of various dilutions of sterile-filtered WE. IFN-g (50 ng/ml), LPS (100 ng/ml) and IL-4 (25 ng/ml) or combinations thereof served as controls for M1 and M2 macrophage induction. For negative control samples, medium was added instead of specific stimuli. WE were added to the culture medium for overnight stimulation at dilutions ranging from 1:25 to 1:100.
Supernatants were harvested and frozen for cytokine determination by ELISA, and cells were harvested and subjected to FACS analysis, gating on the monocyte population. Geometric means or mean fluorescence intensities (MFI) were used to quantify surface marker expression.
ELISA: CXCL10 and IL-23p19 for M1 macrophages and CCL22 and CCL18 as M2 macrophage markers, IL-1alpha, IL-1beta and TNF-alpha as pro-inflammatory markers indicative of an M1 phenotype.
Cells were harvested and resuspended in FACS buffer (PBS containing 2% FCS). Unspecific antibody binding was prevented by incubation with human Trustain FCR blocking solution (Biolegend, #422302) on ice for 10 minutes. The following fluorchrome-conjugated antibodies from eBioscience (now ThermoFisher Scientific) were used to detect specific surface markers by staining on ice for 30 minutes: CD38-PerCPeFluor710 (#46-0388-42), CD197-APC (#17-1979-42), CD206-AF488 (#53-2069-42), CD209-PerCP Cy5.5 (#45-2099-42). Co-staining with CD45 eFluor (#506 69-0459-42) was used to distinguish macrophages from primary human fibroblasts when analyzed from co-cultures. After washing cells with FACS buffer, they were fixed with 1% paraformaldehyde in PBS and stored at 4° C. in the dark until data were acquired on a Gallios flow cytometer from Beckman Coulter and analyzed with the Kaluza analysis software 1.3.

[2] = system: wound exudate-induced pig wounds; test: Porcine model of delayed wound healing induced by human wound exudates; format: in vivo; conditions: veliparib 10 mM, talazoparib 1 mM
Source text: The pig is regarded as the species with the highest correlation to man in skin anatomy and physiology. Pig wounds tend to heal by a combination of granulation tissue formation and contraction, similar to human wounds, and porcine wound healing studies show a high concordance with human studies. We developed a chronically inflamed porcine wound model. Acute pig wounds were stimulated by a combination of human chronic wound fluids and the toll-like receptors 7 and 8 (TLR7,8) agonist resiquimod (R848).
Female domestic white pigs at the age of 10-12 weeks and a body weight of approximately 12 kg were sedated with 20 mg Ketamin/2 mg Xylacin i.m. followed by inhalation anesthesia via Isofluran. Immediately after induction of anesthesia, a fentanyl transdermal patch (50 μg/h) was applied to control postsurgical pain. The fentanyl patch was replaced daily for the first 3 days after surgery and afterwards only when signs of pain were apparent. Before wounding, the back hair of the animals was clipped and the skin was cleaned with Braunol and disinfected with Skinsept. Then a total of 24 full-thickness excisional wounds per animal were applied using a 6 mm disposable biopsy punch. Immediately after wounding 50 μl of a 0.05% R848 gel was applied topically to the wounds which were covered with dressing (Mölnlycke Health Care AB, Sweden). 6 hours later, the wounds were treated with 3% HPMC (hydroxypropyl methylcellulose)-gellified human wound exudates or human serum as controls. Wound exudates had been harvested from negative pressure wound therapy systems used to treat patients diagnosed with chronic ulcers. Induction of wound inflammation by R848 and wound exudate was carried out for a total of 5 consecutive days.
From day 6 to day 10, veliparib and talazoparib at 10 mM and 1 mM, respectively, were dissolved in vehicle (50% propylene glycol/47.5% water/0.5% Tween 80/2.0% HPMC), applied to the wounds once daily and covered with dressing. Until day 12, wounds and surrounding skin were clinically examined once daily, upon dressing change, and observed changes were scored on a scale from 0-3. The following criteria were used:
The total achievable score (non-healing) is 19. Healing is associated with low scores.

[3] = FIG. 18, induced by WE #91, topical once daily day 6-10
[4] = FIG. 19, induced by WE #43, day 6-10

| SMILES | percentage of live cells in the FACS CD45-gate (macrophages) [1] | macrophage M2 marker CD206 [1] | proinflammatory cytokine IL-1α induced by wound exudate [1] | delayed pig wound healing (time course, clinical score) [2, 3] | delayed pig wound healing (time course, clinical score) [2, 4] |
| --- | --- | --- | --- | --- | --- |
| Cn1ncnc1[C@H]1c2n[nH]c(=O)c3cc(F)cc(c23)N[C@@H]1c1ccc(F)cc1 [Talazoparib] | dose-dependently increased | dose-dependently increased | reduced | improve wound healing | improves wound healing |
| C[C@]1(c2nc3c(C(N)=O)cccc3[nH]2)CCCN1 [Veliparib, 2-((2R)-2-methylpyrrolidin-2-yl)-1H-benzimidazole-4-carboxamide] | dose-dependently increased | dose-dependently increased | reduced | improve wound healing | only a minor effect |
